Experimental data: paper PMC9304199, “A small molecule CFTR potentiator restores ATP‐dependent channel gating to the cystic fibrosis mutant G551D‐CFTR” (British Journal of Pharmacology, 2022)
Where two headings read alike, the source gives them in different places.

Target: F508del‐CFTR (Homo sapiens, UniProt P13569, DEL508-508)
Assay: Single-channel recording in excised inside-out membrane patches, F508del‐CFTR
Format: biochemical
Set-up: expressed in transfected cells; BHK cells from MD Amaral
Details: for reduction of interburst interval (IBI): single active channel; for Emax: read-out: Maximal effect (%) (95% CI)
Experimental: For CFTR studies using automated electrophysiology and single-channel recording, we used baby hamster kidney (BHK) cells (RRID:CVCL_1915) and human embryonic kidney (HEK) 293 cells (RRID:CVCL_0045) stably expressing wild-type human CFTR and the CFTR variants F508del- and […] et al., [2002]; Xu et al., [2014]). […] HEK cells expressing CFTR variants were generated using the Flp-InTM system as described above for F508del- and G551D-CFTR-expressing FRT cells. They were cultured in Dulbecco's modified Eagle's medium (glucose, 1.5 g·L^-1; sodium pyruvate, 110 mg·L^-1) supplemented with 10% FBS (PAA Laboratories), GlutaMAXTM and hygromycin-B (150 μg·ml^-1; InvitrogenTM, Thermo Fisher Scientific) at 37°C in a humidified atmosphere with 5% CO2. Prior to study, F508del-CFTR expressed in HEK cells was trafficked to the plasma membrane by low temperature incubation (27°C for 24-72 h). […] CFTR Cl^- channels were recorded in excised inside-out membrane patches using an Axopatch 200B patch-clamp amplifier and pCLAMP software (version 10.3) (RRID:SCR_011323) (both from Molecular Devices, San Jose, CA, USA) (Sheppard & Robinson, [1997]). […] Within 2 min after membrane patch excision, we added the catalytic subunit of protein kinase A (PKA; 75 nM) and ATP (1 mM) to the intracellular solution to activate CFTR Cl^- channels. To minimise channel rundown, we added PKA and millimolar concentrations of ATP to all intracellular solutions and clamped voltage at -50 mV. […] We reduced the ATP concentration when testing CFTR potentiators on wild-type CFTR to observe their effects more clearly. […] Instead, specific interventions with CFTR potentiators were compared with the pre-intervention control period made with the same concentration of ATP and PKA, but without test compounds. […] To determine channel number, we used the maximum number of simultaneous channel openings observed during an experiment (Cai et al., [2006]). To minimise errors, we used experimental conditions that robustly potentiate channel activity and verified that recordings were of sufficient length to ascertain the correct number of channels ([…] et al., [1994]). […] Therefore, Po values for G551D-CFTR are expressed as apparent Po (Po(app)) values. Single-channel currents were directly acquired to a computer hard disc after filtering at a corner frequency (f c) of 500 Hz with an eight-pole Bessel filter (model LHBF-48×; npi electronic GmbH, Tamm, Germany) and digitising at a sampling rate of 5 kHz using a Digidata 1440A interface (Molecular Devices) and pCLAMP software. To measure single-channel current amplitude (i), Gaussian distributions were fit to current amplitude histograms. For Po and burst analyses, lists of open- and closed-times were created using a half-amplitude crossing criterion for event detection and dwell-time histograms constructed as previously described (Sheppard & Robinson, [1997]); transitions < 1 ms were excluded from the analysis (eight-pole Bessel filter rise time [T 10-90] ~ 0.73 ms at f c = 500 Hz). Histograms were fitted with one or more component exponential functions using the maximum likelihood method. […] The mean interburst interval (TIBI) was calculated using the equation (Cai et al., [2006]): (1) Po=Tb/TMBD+TIBI, where T b = (mean burst duration) × (open probability within a burst). Mean burst duration (T MBD) and open probability within a burst (Po[burst]) were determined directly from experimental data using pCLAMP software.

[1] = F508del‐CFTR Cl− channels, excised inside-out patches, 23°C, data normalised to ivacaftor 1 μM, read-out: EC50 (μM) (95% CI)
[2] = low temperature-rescued F508del‐CFTR, ATP 1 mM, PKA 75 nM, ~23°C
[3] = low temperature-rescued F508del‐CFTR, ATP 1 mM, PKA 75 nM, ~23°C, read-out: EC50 for potentiation of Po
[4] = low temperature-rescued F508del‐CFTR, compound 10 μM, ATP 1 mM
[5] = low temperature-rescued F508del‐CFTR, compound 1 μM, ATP 1 mM

Sequence of F508del‐CFTR (P13569 with tags, fused parts or gaps DEL508-508): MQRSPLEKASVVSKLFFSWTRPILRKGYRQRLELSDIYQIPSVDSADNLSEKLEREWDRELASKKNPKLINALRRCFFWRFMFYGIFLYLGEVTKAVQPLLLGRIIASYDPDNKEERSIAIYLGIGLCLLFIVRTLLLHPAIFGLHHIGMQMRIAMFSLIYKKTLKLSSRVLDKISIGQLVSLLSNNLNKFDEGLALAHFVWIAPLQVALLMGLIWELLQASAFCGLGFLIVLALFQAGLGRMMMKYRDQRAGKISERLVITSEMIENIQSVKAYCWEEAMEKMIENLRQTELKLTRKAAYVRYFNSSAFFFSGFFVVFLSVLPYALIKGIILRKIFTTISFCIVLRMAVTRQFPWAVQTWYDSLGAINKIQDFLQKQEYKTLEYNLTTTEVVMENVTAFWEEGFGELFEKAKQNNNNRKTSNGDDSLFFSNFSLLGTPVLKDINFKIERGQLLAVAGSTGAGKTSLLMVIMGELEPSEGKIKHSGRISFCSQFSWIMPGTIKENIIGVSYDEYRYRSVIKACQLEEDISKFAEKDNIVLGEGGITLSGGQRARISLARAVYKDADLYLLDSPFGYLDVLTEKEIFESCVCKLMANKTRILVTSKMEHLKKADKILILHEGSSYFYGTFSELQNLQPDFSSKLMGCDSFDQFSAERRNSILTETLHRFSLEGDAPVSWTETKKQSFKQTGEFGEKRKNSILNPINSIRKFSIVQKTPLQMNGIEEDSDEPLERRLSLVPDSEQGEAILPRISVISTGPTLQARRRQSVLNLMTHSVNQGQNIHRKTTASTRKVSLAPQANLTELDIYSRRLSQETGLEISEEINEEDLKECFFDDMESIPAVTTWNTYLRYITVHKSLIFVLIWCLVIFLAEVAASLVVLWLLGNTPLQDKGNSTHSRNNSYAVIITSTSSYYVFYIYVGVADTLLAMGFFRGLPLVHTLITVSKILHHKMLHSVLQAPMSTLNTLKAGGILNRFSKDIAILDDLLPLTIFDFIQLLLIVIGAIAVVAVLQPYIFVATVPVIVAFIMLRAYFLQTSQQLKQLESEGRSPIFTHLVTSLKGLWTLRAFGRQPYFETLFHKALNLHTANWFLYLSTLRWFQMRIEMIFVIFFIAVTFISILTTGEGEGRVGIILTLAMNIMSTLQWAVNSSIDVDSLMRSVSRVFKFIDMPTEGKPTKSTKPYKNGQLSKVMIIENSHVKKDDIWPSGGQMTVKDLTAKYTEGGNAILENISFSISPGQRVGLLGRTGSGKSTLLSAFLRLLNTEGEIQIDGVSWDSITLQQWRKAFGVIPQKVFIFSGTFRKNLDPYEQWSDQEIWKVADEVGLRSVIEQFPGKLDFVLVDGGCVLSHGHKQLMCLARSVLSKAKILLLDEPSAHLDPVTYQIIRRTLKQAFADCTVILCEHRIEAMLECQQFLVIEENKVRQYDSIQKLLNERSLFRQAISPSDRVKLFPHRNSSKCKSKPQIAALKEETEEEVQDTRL

Row | SMILES | EC50 [1] | Po max [2] | EC50 [3] | Po max of ATP-dependence in presence of compound (low temperature-rescued F508del‐CFTR, compound 300 nM, ATP 0.1–3 mM) | enhancement of Po [4] | reduction of interburst interval (IBI) [4] | Emax | enhancement of Po [5] | reduction of interburst interval (IBI) [5]
1 | Cc1ncccc1CNC(=O)c1ccc2c(c1)CC[C@H]1C[C@](O)(CCC(F)(F)F)CC[C@]21Cc1ccccc1 (racemic) [CP‐628006, rac‐(4bR,7R,8aS)‐4b‐benzyl‐7‐hydroxy‐N‐((2‐methylpyridin‐3‐yl)methyl)‐7‐(3,3,3‐trifluoropropyl)‐4b,5,6,7,8,8a,9,10‐octahydrophenanthrene‐2‐carboxamide] | 0.5 µM | 0.62 | 0.4 µM | 0.33 | 13 ± 5 fold | 15 fold | 144% |  | 
2 | CC(C)(C)c1cc(C(C)(C)C)c(NC(=O)c2c[nH]c3ccccc3c2=O)cc1O [ivacaftor, reference compound] | 0.008 µM | 0.51 | 0.01 µM |  |  |  | 103% | 9 ± 5 fold | 15 fold
